Measurements reported in paper PMC8529873, “Carbohydrate-Based NK1R Antagonists with Broad-Spectrum Anticancer Activity” (Journal of Medicinal Chemistry, 2021).
Read-outs that look alike come from different tables or passages of the source. Where no end group is shown, it is not given here.

How the values were obtained:
A549 cells [1] = experiment: Cell proliferation after SP, Resazurin assay, 48 h; assay type: cell-based, human; details: SP 2.5 - 200 nM
Description: Competition Experiments of Cytotoxic effect of in presence of SP. 14α
First, we treated A549 cells with several concentrations of SP (2.5 - 200 nM) for 48 h and we evaluated cell proliferation with the Resazurin assay. Although it has been reported that A549 […]
of SP. The highest SP concentration tested (200 nM) was added 1 h before 32 µM of 14α or Cisplatin. After a 48 h treatment period, the cell viability was determined with the Resazurin […]
Figure S-4. Evaluation of cytotoxic activity of 14α derivative and Cisplatin on A549 lung cancer cells and HaCaT normal cells in presence of SP. Results are representative of at least three independent experiments. Values are expressed in mean with SEM.
1 O'Connor, T.M.; O'Connell, J.; O'Brien, D.I.; Bennett, M.W.; Goode, T.; Burke, L.; Bredin, C.P.; Shanahan,
(1 picture or pasted object on this page, not shown here)

HNO97 (tongue cancer) = experiment: Resazurin cell viability assay, 96 h, HNO97; assay type: cell-based, human
Excerpt: (§1) Cell viability was estimated with the resazurin assay. HaCaT human skin nonmalignant cells were used to study selectivity; these cells are derived from normal adult tissue and have a division rate similar to that of cancer cells.
(§2) Cell viability was estimated with the 3-(4,5-dimethylthiazol-2-yl)-2,5-diphenyltetrazolium bromide (MTT) assay or the resazurin assay. Both assays are redox-based colorimetric techniques based on the capability of viable cells to reduce the yellow product MTT or the blue reagent resazurin into a purple formazan dye or a pink-colored product, respectively. The number of live cells is directly proportional to the amount of the final product created. Exponentially growing cells were seeded in 96-well plates and were allowed to grow during 24 h. The cells were then treated with several concentrations of the tested compounds for 48–96 h (the incubation periods are specified in the figures and table legends) before measuring the cell viability using the MTT assay or the resazurin assay.
(§3) The OD of each well was measured at 540 and 620 nm on a multiwell plate spectrophotometer reader.

[2] = test system: AN3Ca (endometrial adenocarcinoma); experiment: Resazurin cell viability assay, 96 h, AN3Ca; assay type: cell-based, human
Excerpt: as §1, §2, §3

MeWo (melanoma; BRAF WT) = experiment: Resazurin cell viability assay, 96 h, MeWo; assay type: cell-based, human
Excerpt: as §1, §2, §3

[3] = test system: MDA-MB-231 (triple-negative breast cancer); experiment: Resazurin cell viability assay, 96 h, MDA-MB-231; assay type: cell-based, human; details: IC50 HaCaT / IC50 MDA-MB-231
Excerpt: as §1, §2, §3

[4] = test system: A549 human lung cancer cells; experiment: MTT cytotoxicity assay, 48 h, A549 cells; assay type: cell-based; details: for IC50: read-out: IC50 (mean ± SEM) A549 (cancer)
Excerpt: (§4) First, we evaluated the cytotoxicity of our carbohydrate derivatives against MRC-5 human nonmalignant lung cells and A549 human lung cancer cells using the 3-(4,5-dimethylthiazol-2-yl)-2,5-diphenyltetrazolium bromide (MTT) assay under the same experimental conditions.
as §2
(§5) Then, 80 μL of 20% sodium dodecyl sulfate (SDS) in 20 mM HCl was added to dissolve the insoluble purple formazan product and plates were incubated for 15 h at 37 °C. The optical density (OD) of each well was measured at 540 nm with a multiwell plate spectrophotometer reader to quantify cell survivals.
In both assays, results were expressed as the percentage of cell viability in relation to untreated cells (controls). All data were averaged from two to five independent experiments and were expressed as the means ± standard error of the mean (SEM). For statistical analysis, the t-test (paired, two-tailed) was used. A p value >0.05 is not considered statistically significant and is not represented by any symbol, a p value <0.05 is considered statistically significant and is indicated with an asterisk (*), a p value <0.01 is indicated with a double asterisk (**), and a p value <0.001 is indicated with a triple asterisk (***).

PC-3 (prostate cancer) = experiment: Resazurin cell viability assay, 96 h, PC-3; assay type: cell-based, human
Excerpt: as §1, §2, §3

[5] = test system: KATO III (gastric cancer); experiment: Resazurin cell viability assay, 96 h, KATO III; assay type: cell-based, human
Excerpt: as §1, §2, §3

[6] = test system: A64-CLS (submaxillary gland adenoma); experiment: Resazurin cell viability assay, 96 h, A64-CLS; assay type: cell-based, human
Excerpt: as §1, §2, §3

Sk-OV-3 (ovarian cancer) = experiment: Resazurin cell viability assay, 96 h, Sk-OV-3; assay type: cell-based, human; details: IC50 HaCaT / IC50 Sk-OV-3
Excerpt: as §1, §2, §3

[7] = test system: Sk-Br-3 (HER2-positive breast cancer); experiment: Resazurin cell viability assay, 96 h, Sk-Br-3; assay type: cell-based, human
Excerpt: as §1, §2, §3

[8] = test system: MRC-5 human nonmalignant lung cells; experiment: MTT cytotoxicity assay, 48 h, MRC-5 cells; assay type: cell-based
Excerpt: as §4
as §2, with “The cells were then treated with several concentrations of the tested compounds for 48–96 h (the incubation periods are specified in the figures and table legends) before measuring the cell viability using the MTT assay or the resazurin assay.” left out
as §5
In both assays, results were expressed as the percentage of cell viability in relation to untreated cells (controls). All data were averaged from two to five independent experiments and were expressed as the means ± standard error of the mean (SEM). […]

[9] = test system: HaCaT (human skin normal); experiment: Resazurin cell viability assay, 96 h, HaCaT; assay type: cell-based; details: read-out: IC50 (mean ± SEM) HaCaT
Description: Thirteen human cancer cells lines and one human nonmalignant cell line were treated with 14α for 96 h. We used longer exposure times because some of these cell lines have long cell cycles (24–48 h); this longer exposure time allows the cells to pass several cycles in the presence of 14α. Cell viability was estimated with the resazurin assay. HaCaT human skin nonmalignant cells were used to study selectivity; these cells are derived from normal adult tissue and have a division rate similar to that of cancer cells. One key limitation of most anticancer drugs is that, in addition to targeting cancer cells, they also target nonmalignant cells with similar division rates. […] These cell lines were at least 3 times more sensitive than the normal cell line to 14α treatment. HepG2 (hepatocarcinoma) and KATO III (gastric cancer) were at least 9-fold more vulnerable to 14α than HaCaT nonmalignant cells.
Cell viability was estimated with the 3-(4,5-dimethylthiazol-2-yl)-2,5-diphenyltetrazolium bromide (MTT) assay or the resazurin assay. […]
For the resazurin assay, after treatment, the medium was removed and 150 μL of resazurin solution (20 μg/mL in medium) was added to each well for 3–6 h. The OD of each well was measured at 540 and 620 nm on a multiwell plate spectrophotometer reader.

T24 (bladder cancer) = experiment: Resazurin cell viability assay, 96 h, T24; assay type: cell-based, human
Excerpt: as §1, §2, §3

HT29 (colorectal cancer) = experiment: Resazurin cell viability assay, 96 h, HT29; assay type: cell-based, human
Excerpt: as §1, §2, §3

HepG2 (hepatocarcinoma) = experiment: Resazurin cell viability assay, 96 h, HepG2; assay type: cell-based, human
Excerpt: as §1, §2, §3

GAMG (glioblastoma) = experiment: Resazurin cell viability assay, 96 h, GAMG; assay type: cell-based, human
Excerpt: as §1, §2, §3

A549 cells [10] = experiment: Glycolysis inhibition: glucose consumption and lactate production; assay type: cell-based, human; details: A549 cells exposed for 8 h
Description: Our next aim was to study the possible mechanisms involved in the selective anticancer activity of 14α. Because tumor cells rely on glycolysis for survival more than normal cells,[32] we evaluated if our compound behaved as a glycolysis inhibitor. Since glycolysis consumes glucose and produces lactate, we measured the concentrations of glucose and lactate in untreated A549 cells and in cells exposed for 8 h to 14α and to the known glycolysis inhibitor dichloroacetate.
Glycolysis inhibition was assessed by measuring concentrations of glucose ([…] of glycolysis) and lactate (final product of glycolysis) in control and treated cells. Briefly, 4 × 10^5 cells were seeded into 24-well plates. After 10 h, the medium of cells was renewed and drugs were added. Cells were exposed to the tested compounds for 8 h, and glucose and lactate concentrations were determined in cell supernatants using the Accutrend Plus analyzer together with Accutrend glucose strips and BM-Lactate strips (Roche Diagnostics). […] Results are expressed as a percentage of lactate production and percentage of glucose consumption in relation to untreated cells and are shown as the means ± SEM of two independent experiments.

A549 cancer cells = experiment: Cytotoxicity of 14α in presence or absence of antioxidants (ROS involvement); assay type: cell-based, human; details: A549, 48 h
Description: It is known that cancer cells have higher basal levels of reactive oxygen species (ROS) than normal cells, making them more sensitive to exogenous induction of ROS.[33] […] Therefore, we decided to study whether the generation of ROS was involved in the selective cytotoxic effect of 14α. A549 cancer cells were treated with 14α for 48 h in the presence or absence of three antioxidants: N-acetylcysteine (antioxidant activity through the glutathione system), catalase (hydrogen peroxide-degrading enzyme), and Mn(III) tetrakis(1-methyl-4-pyridyl)porphyrin pentachloride (MnTMPyP; superoxide anion scavenger).

Compound: substance P (RPKPQQFFGLM-NH2; ends and bridges not checked; also: 125I label, position not given here) [SP]
- cell proliferation after addition of SP (A549 cells [1]): did not observe any increase in cell proliferation

Compound: N.N.[Cl][Pt][Cl] [Cisplatin]
- selectivity index (vs HaCaT; mean ± SEM) HNO97 (HNO97 (tongue cancer); IC50 HaCaT / IC50 HNO97, Resazurin): 0.8 ± 0.1
- IC50 (HNO97 (tongue cancer); Resazurin assay, read-out: IC50 (mean ± SEM) HNO97): 2.5 ± 0.4 µM
- selectivity index (vs HaCaT; mean ± SEM) AN3Ca ([2]; IC50 HaCaT / IC50 AN3Ca, Resazurin): 2.1 ± 1.2
- IC50 ([2]; Resazurin assay, read-out: IC50 (mean ± SEM) AN3Ca): 1.8 ± 1.4 µM
- selectivity index (vs HaCaT; mean ± SEM) MeWo (MeWo (melanoma; BRAF WT); IC50 HaCaT / IC50 MeWo, Resazurin): 1.0 ± 0.1
- IC50 (MeWo (melanoma; BRAF WT); Resazurin assay, read-out: IC50 (mean ± SEM) MeWo): 2.2 ± 1.1 µM
- selectivity index (vs HaCaT; mean ± SEM) MDA-MB-231 [3]: 0.3 ± 0.1
- IC50 ([4]; MTT assay): 13.5 ± 2.7 µM
- selectivity index (IC50 MRC-5 / IC50 A549) ([4]; mean of indices of each individual experiment, MTT): 8.6 ± 3.9
- selectivity index (vs HaCaT; mean ± SEM) PC-3 (PC-3 (prostate cancer); IC50 HaCaT / IC50 PC-3, Resazurin): 0.7 ± 0.2
- IC50 (PC-3 (prostate cancer); Resazurin assay, read-out: IC50 (mean ± SEM) PC-3): 3.1 ± 0.2 µM
- selectivity index (vs HaCaT; mean ± SEM) KATO III ([5]; IC50 HaCaT / IC50 KATO III, Resazurin): 1.2 ± 0.5
- IC50 ([5]; Resazurin assay, read-out: IC50 (mean ± SEM) KATO III): 1.8 ± 0.2 µM
- selectivity index (vs HaCaT; mean ± SEM) A64-CLS ([6]; IC50 HaCaT / IC50 A64-CLS, Resazurin): 0.5 ± 0.0
- IC50 ([6]; Resazurin assay, read-out: IC50 (mean ± SEM) A64-CLS): 4.5 ± 1.2 µM
- selectivity index (vs HaCaT; mean ± SEM) Sk-OV-3 (Sk-OV-3 (ovarian cancer)): 0.5 ± 0.2
- selectivity index (vs HaCaT; mean ± SEM) Sk-Br-3 ([7]; IC50 HaCaT / IC50 Sk-Br-3, Resazurin): 0.5 ± 0.1
- IC50 ([7]; Resazurin assay, read-out: IC50 (mean ± SEM) Sk-Br-3): 4.3 ± 0.9 µM
- IC50 ([8]; read-out: IC50 (mean ± SEM) MRC-5 (normal)): 99.2 ± 37 µM
- IC50 [9]: 2.1 ± 0.7 µM
- selectivity index (vs HaCaT; mean ± SEM) T24 (T24 (bladder cancer); IC50 HaCaT / IC50 T24, Resazurin): 1.3 ± 0.0
- IC50 (T24 (bladder cancer); Resazurin assay, read-out: IC50 (mean ± SEM) T24): 1.6 ± 0.5 µM
- selectivity index (vs HaCaT; mean ± SEM) HT29 (HT29 (colorectal cancer); IC50 HaCaT / IC50 HT29, Resazurin): 0.4 ± 0.1
- IC50 (HT29 (colorectal cancer); Resazurin assay, read-out: IC50 (mean ± SEM) HT29): 4.9 ± 0.8 µM
- selectivity index (vs HaCaT; mean ± SEM) HepG2 (HepG2 (hepatocarcinoma); IC50 HaCaT / IC50 HepG2, Resazurin): 1.2 ± 0.2
- IC50 (HepG2 (hepatocarcinoma); Resazurin assay, read-out: IC50 (mean ± SEM) HepG2): 1.8 ± 0.2 µM
- selectivity index (vs HaCaT; mean ± SEM) GAMG (GAMG (glioblastoma); IC50 HaCaT / IC50 GAMG, Resazurin): 0.7 ± 0.0
- IC50 (GAMG (glioblastoma); Resazurin assay, read-out: IC50 (mean ± SEM) GAMG): 3.2 ± 0.9 µM

Compound: C[C@@H](O[C@H]1OCCN(Cc2n[nH]c(=O)[nH]2)[C@H]1c1ccc(F)cc1)c1cc(C(F)(F)F)cc(C(F)(F)F)c1 [Aprepitant]
- IC50 ([4]; Homo sapiens, A549, MTT assay): 18.3 ± 3.4 µM
- IC50 ([8]; Homo sapiens, MRC5, read-out: IC50 (mean ± SEM) MRC-5 (normal)): 28.9 ± 6.8 µM

Compound: C[C@@H](O[C@H]1O[C@@H]2CO[C@@H](c3ccccc3)O[C@@H]2[C@H](O)[C@H]1OCc1ccc(F)cc1)c1cc(C(F)(F)F)cc(C(F)(F)F)c1 [14α, (R)-{1-[3,5-Bis-(trifluoromethyl)phenyl]ethyl} (R)-(4,6-O-Benzylidene)-2-O-p-fluorobenzyl-α-D-galactopyranoside]
- glucose consumption and lactate production (glycolysis inhibition) (A549 cells [10]): did not reduce glucose consumption or lactate production
- effect of antioxidants (N-acetylcysteine, catalase, MnTMPyP) on cytotoxicity (A549 cancer cells): None of these three antioxidants reduced the cytotoxicity
